# Values of other authors in patent US12409106B2, “Medical material” (Senju USA, Inc., priority 2022, dated 2025).
# Conditions: Soong T. Chiang et al., Pharmacotherapy 1996
structure (smiles),measurement,value
Nc1c(CC(=O)O)cccc1C(=O)c1ccc(Br)cc1 [bromfenac],topical 50% effective concentration EC50 on pain after oral surgery,0.36 µg/mL
